Measurements published in patent US20070117773A1, “Telomerase-inhibiting ENA oligonucleotide” (SANKYO COMPANY, LIMITED, priority 2004, published 2007).

tested on: RNA oligonucleotide having the sequence of telomerase RNA (5′-UUGUCUAACCCUA-3′); test: Test for determining melting temperature (Tm) with telomerase RNA oligonucleotide; format: binding, human; settings: 3.4 μM compound + 3.4 μM RNA oligonucleotide, 10 mM sodium phosphate buffer (pH 7.2), absorbance at 260 nm, 20° C. to 95° C.

| Substance | Tm (melting temperature) [°C] |
| --- | --- |
| HO-T^e2s-A^e2s-G^e2s-G^e2s-G^e2s-T^e2s-T^e2s-A^e2s-G^e2s-A^e2s-CH2CH2OH [Example 3] | 74 |
| HO-T^e2s-A^e2s-G^e2s-G^e2s-G^e2s-T^e2s-T^e2s-A^e2s-G^e2s-CH2CH2OH [Example 6] | 71 |
| HO-T^e2s-A^e2s-G^e2s-G^e2s-G^e2s-T^e2s-T^e2s-A^e2s-G^e2s-C^e2s-A^e2s-A^e2s-CH2CH2OH [Example 1] | 85 |

Further lines, results first:

| Tm (melting temperature) [°C] | Substance |
| --- | --- |
| 62 | HO-T^e2s-A^e2s-G^e2s-G^e2s-G^e2s-T^e2s-T^e2s-A^e2s-CH2CH2OH [Example 4] |
| 87 | HO-T^e2s-A^e2s-G^e2s-G^e2s-G^e2s-T^e2s-T^e2s-A^e2s-G^e2s-A^e2s-C^e2s-A^e2s-CH2CH2OH [Example 2] |
| 52 | HO-T^e2s-A^e2s-G^e2s-G^e2s-G^e2s-T^e2s-T^e2s-CH2CH2OH [Example 5] |
